Values joined by “and” are separate entries in the source; they are usually repeats but may differ in a detail not shown here. Equal entries are not always repeated.
Target: BoNT/E (Clostridium botulinum, UniProt Q00496)

**Q.** IIIGNLGNEIDTQNRQIDRIMAKAKSKKR [Pep-52] was tested. Which Relative product did it give?
**A.** 581 and 511

Reference: patent US10408837B2 (priority 2013, dated 2019)
